In patent US20100092526A1, “NANOEMULSION THERAPEUTIC COMPOSITIONS AND METHODS OF USING THE SAME” (NanoBio Corporation, priority 2008, published 2010):
≈ marks a conversion by molar mass, not a printed value. Like-named read-outs stand apart in the source and are kept apart here.

Assays:
Proteus mirabilis = assay: MIC/MBC of nanoemulsions against gram-negative isolates (CLSI, alamar blue); assay type: cell-based; conditions: Proteus mirabilis (n = 5); for MIC50 / MIC Range: nanoemulsions in the presence of 5 mM EDTA
Escherichia coli = assay: as above; assay type: cell-based; conditions: Escherichia coli (n = 5)
Pseudomonas aeruginosa [1] = assay: as above; assay type: cell-based; conditions: Pseudomonas aeruginosa (n = 5); for MIC50: nanoemulsions in the presence of 5 mM EDTA
Acinetobacter baumannii [2] = assay: as above; assay type: cell-based; conditions: Acinetobacter baumannii (n = 5); for MIC50: nanoemulsions in the presence of 5 mM EDTA
[3] = tested on: Stenotrophomonas maltophilia; assay: as above; assay type: cell-based; conditions: Stenotrophomonas maltophilia (n = 5); nanoemulsions in the presence of 5 mM EDTA
Pseudomonas aeruginosa [4] = assay: MIC/MBC against CF isolates (CLSI, alamar blue); conditions: for MBC / MIC: Pseudomonas aeruginosa
Burkholderia cepacia = assay: MIC/MBC of nanoemulsions against gram-negative isolates (CLSI, alamar blue); assay type: cell-based; conditions: Burkholderia cepacia (n = 5), nanoemulsions in the presence of 5 mM EDTA; for MIC Range: in µg/mL
Klebsiella pneumoniae = assay: as above; assay type: cell-based; conditions: Klebsiella pneumoniae (n = 5); for MIC50 / MIC Range: nanoemulsions in the presence of 5 mM EDTA
[5] = tested on: P. aeruginosa, B. cenocepacia, A. baumannii and S. maltophilia; assay: MIC/MBC against all strains of Example 8; conditions: read-out: MBC90, against all strains
Acinetobacter baumannii [6] = assay: MIC/MBC against clinical isolates (CLSI, alamar blue); conditions: Acinetobacter baumannii
Burkholderia cenocepacia = assay: MIC/MBC against CF isolates (CLSI, alamar blue); conditions: Burkholderia cenocepacia
Haemophilus influenzae = assay: Susceptibility (MIC/MBC) of H. influenzae clinical isolates; assay type: cell-based
[7] = nanoemulsions in the presence of 5 mM EDTA

C[C@@H](O)[C@H]1C(=O)N2C(C(=O)O)=C(SCCN=CN)C[C@H]12 [Imipenem]
% resistant (Proteus mirabilis): 0.0% | % susceptible (Proteus mirabilis): 100.0% | MIC50 (Proteus mirabilis): 1 µg/mL | MIC Range (Proteus mirabilis): <=0.12-2 ^ | % resistant (Escherichia coli): 0.0% | % susceptible (Escherichia coli): 100.0% | MIC50 (Escherichia coli; [7]): 0.25 µg/mL | MIC Range (Escherichia coli; [7]): <=0.12-0.5 ^ | % resistant (Pseudomonas aeruginosa [1]): 20.0% | % susceptible (Pseudomonas aeruginosa [1]): 80.0% | MIC50 (Pseudomonas aeruginosa [1]): 1 µg/mL | % resistant (Acinetobacter baumannii [2]): 20.0% | % susceptible (Acinetobacter baumannii [2]): 80.0% | MIC50 (Acinetobacter baumannii [2]): ≤ 0.12 µg/mL | MIC50 [3]: > 8 µg/mL | MBC 90 (Pseudomonas aeruginosa [4]; 20 CF Pseudomonas isolates): >32 µg/mL | MBC (Pseudomonas aeruginosa [4]; CF Pseudomonas isolate NB1): 8 µg/mL (≈ 26.7 µM) | MIC (Pseudomonas aeruginosa [4]; CF Pseudomonas isolate NB1): 1 µg/mL (≈ 3.34 µM) | MBC (Pseudomonas aeruginosa [4]; CF Pseudomonas isolate NB2): 2 µg/mL (≈ 6.68 µM) | MIC (Pseudomonas aeruginosa [4]; CF Pseudomonas isolate NB2): 2 µg/mL (≈ 6.68 µM) | MIC (Pseudomonas aeruginosa [4]; CF Pseudomonas isolate NB3): 2 µg/mL (≈ 6.68 µM) | MBC (Pseudomonas aeruginosa [4]; CF Pseudomonas isolate NB4): 8 µg/mL (≈ 26.7 µM) | MIC (Pseudomonas aeruginosa [4]; CF Pseudomonas isolate NB5): 2 µg/mL (≈ 6.68 µM) | MBC (Pseudomonas aeruginosa [4]; CF Pseudomonas isolate NB6): 2 µg/mL (≈ 6.68 µM) | MIC (Pseudomonas aeruginosa [4]; CF Pseudomonas isolate NB6): 1 µg/mL (≈ 3.34 µM) | MBC (Pseudomonas aeruginosa [4]; CF Pseudomonas isolate NB10): 8 µg/mL (≈ 26.7 µM) | MBC (Pseudomonas aeruginosa [4]; CF Pseudomonas isolate NB11): 8 µg/mL (≈ 26.7 µM) | MIC (Pseudomonas aeruginosa [4]; CF Pseudomonas isolate NB11): 2 µg/mL (≈ 6.68 µM) | MIC (Pseudomonas aeruginosa [4]; CF Pseudomonas isolate NB13): 8 µg/mL (≈ 26.7 µM) | MIC (Pseudomonas aeruginosa [4]; CF Pseudomonas isolate NB15): 8 µg/mL (≈ 26.7 µM) | MIC (Pseudomonas aeruginosa [4]; CF Pseudomonas isolate NB16): 8 µg/mL (≈ 26.7 µM) | MIC (Pseudomonas aeruginosa [4]; CF Pseudomonas isolate NB20): 2 µg/mL (≈ 6.68 µM) | MIC50 (Burkholderia cepacia): 8 µg/mL | MIC Range (Burkholderia cepacia): 4-8 | % resistant (Klebsiella pneumoniae): 0.0% | % susceptible (Klebsiella pneumoniae): 100.0% | MIC50 (Klebsiella pneumoniae): 0.25 µg/mL | MIC Range (Klebsiella pneumoniae): <=0.12-0.25 ^ | MBC [5]: > 32 µg/mL | MIC (Acinetobacter baumannii [6]): 0.125 µg/mL (≈ 0.418 µM) | MBC (Acinetobacter baumannii [6]; Acinetobacter isolate NB31): 1 µg/mL (≈ 3.34 µM) | MIC (Acinetobacter baumannii [6]; Acinetobacter isolate NB31): 1 µg/mL (≈ 3.34 µM) | MBC (Acinetobacter baumannii [6]; Acinetobacter isolate NB35): 8 µg/mL (≈ 26.7 µM) | MIC (Acinetobacter baumannii [6]; Acinetobacter isolate NB35): 8 µg/mL (≈ 26.7 µM) | MBC (Acinetobacter baumannii [6]; Acinetobacter isolate NB36): 0.125 µg/mL (≈ 0.418 µM) | MBC (Acinetobacter baumannii [6]; Acinetobacter isolate NB37): 8 µg/mL (≈ 26.7 µM) | MBC (Acinetobacter baumannii [6]; Acinetobacter isolate NB39): 2 µg/mL (≈ 6.68 µM) | MIC (Acinetobacter baumannii [6]; Acinetobacter isolate NB39): 2 µg/mL (≈ 6.68 µM) | MIC (Acinetobacter baumannii [6]; Acinetobacter isolate NB40): 2 µg/mL (≈ 6.68 µM) | MBC (Acinetobacter baumannii [6]; read-out: MBC 50, 10 Acinetobacter isolates): 8 µg/mL (≈ 26.7 µM) | MBC (Burkholderia cenocepacia; CF Burkholderia isolate NB28b): 0.5 µg/mL (≈ 1.67 µM) | MIC (Burkholderia cenocepacia; CF Burkholderia isolate NB28b): 0.5 µg/mL (≈ 1.67 µM) | MIC (Burkholderia cenocepacia; CF Burkholderia isolate NB29): 8 µg/mL (≈ 26.7 µM)

CN(C)[C@@H]1C(O)=C(C(N)=O)C(=O)[C@@]2(O)C(O)=C3C(=O)c4c(O)cccc4[C@@](C)(O)[C@H]3C[C@@H]12 [Tetracycline]
% resistant (Proteus mirabilis): 100.0% | % susceptible (Proteus mirabilis): 0.0% | MIC50 (Proteus mirabilis): > 8 µg/mL | MIC Range (Proteus mirabilis; in µg/mL): >8 | % resistant (Escherichia coli): 80.0% | % susceptible (Escherichia coli): 20.0% | MIC50 (Escherichia coli; [7]): > 8 µg/mL | % resistant (Pseudomonas aeruginosa [1]): 40.0% | % susceptible (Pseudomonas aeruginosa [1]): 0.0% | MIC50 (Pseudomonas aeruginosa [1]): 8 µg/mL | % resistant (Acinetobacter baumannii [2]): 20.0% | % susceptible (Acinetobacter baumannii [2]): 80.0% | MIC50 (Acinetobacter baumannii [2]): ≤ 2 µg/mL | MIC50 [3]: > 8 µg/mL | MIC Range (Haemophilus influenzae; H. influenzae isolates of Table 6, nanoemulsion values as μg CPC/ml or μg BA/ml): 0.5 to 16 µg/mL | MIC (Haemophilus influenzae; Haemophilus influenzae, strain 30, nanoemulsion values as μg CPC/ml or μg BA/ml): 0.5 µg/mL (≈ 1.13 µM) | MIC (Haemophilus influenzae; Haemophilus influenzae, strain 32, nanoemulsion values as μg CPC/ml or μg BA/ml): 2 µg/mL (≈ 4.5 µM) | MIC (Haemophilus influenzae; Haemophilus influenzae, strain 33, nanoemulsion values as μg CPC/ml or μg BA/ml): 1 µg/mL (≈ 2.25 µM) | MIC (Haemophilus influenzae; Haemophilus influenzae, strain 34, nanoemulsion values as μg CPC/ml or μg BA/ml): 1 µg/mL (≈ 2.25 µM) | MIC (Haemophilus influenzae; Haemophilus influenzae, strain 35, nanoemulsion values as μg CPC/ml or μg BA/ml): 0.5 µg/mL (≈ 1.13 µM) | MIC (Haemophilus influenzae; Haemophilus influenzae, strain 36, nanoemulsion values as μg CPC/ml or μg BA/ml): 1 µg/mL (≈ 2.25 µM) | MIC (Haemophilus influenzae; Haemophilus influenzae, strain 37, nanoemulsion values as μg CPC/ml or μg BA/ml): 1 µg/mL (≈ 2.25 µM) | MIC (Haemophilus influenzae; Haemophilus influenzae, strain 38, nanoemulsion values as μg CPC/ml or μg BA/ml): 0.5 µg/mL (≈ 1.13 µM) | MIC (Haemophilus influenzae; Haemophilus influenzae, strain 41, nanoemulsion values as μg CPC/ml or μg BA/ml): 1 µg/mL (≈ 2.25 µM) | MIC (Haemophilus influenzae; Haemophilus influenzae, strain 42, nanoemulsion values as μg CPC/ml or μg BA/ml): 1 µg/mL (≈ 2.25 µM) | MIC (Haemophilus influenzae; Haemophilus influenzae, strain 49247, nanoemulsion values as μg CPC/ml (P4075EC, W205EC) or μg BA/ml (W205GBA2)): 16 µg/mL (≈ 36 µM) | MIC90 (Haemophilus influenzae; Haemophilus influenzae, H. influenzae isolates of Table 6, nanoemulsion values as μg CPC/ml or μg BA/ml): 2 µg/mL (≈ 4.5 µM) | MIC50 (Burkholderia cepacia): > 8 µg/mL | MIC Range (Burkholderia cepacia): >8 | % resistant (Klebsiella pneumoniae): 0.0% | % susceptible (Klebsiella pneumoniae): 100.0% | MIC50 (Klebsiella pneumoniae): ≤ 2 µg/mL | MIC Range (Klebsiella pneumoniae): <=2-4 ^
